Test results as given in patent publication US20240109868A1, “EP300/CBP MODULATOR, PREPARATION METHOD THEREFOR AND USE THEREOF” (Miracure Biotechnology Limited, priority 2022, published 2024).

Experiments:
22Rv1 Cell = test: 22RV1 cell growth inhibition, CellTiter-Glo, 72 h; format: cell-based; details: 22RV1 cells, 72 h culture
Method: (§1) 22RV1 or vCap cells were cultured in RPMI-1640 medium (10% fetal bovine serum and 100 units (per mL) of penicillin/streptomycin dual antibody were added to RPMI-1640) in a 37° C., 5% CO2 cell incubator. Cells at the logarithmic growth phase were inoculated onto a 96-well cell culture plate at 5×10^3 cells/100 μL/well and cultured overnight. Solutions of different concentrations of an active compound in DMSO were added, with the final concentration being 0.5% DMSO. The positive control was 1% TweeN2O, and the negative control was 0.5% DMSO. After 72 h of culture, an equal volume of CellTiter-Glo was added to each well, and the mixtures were mixed homogeneously by shaking for 2 min. The plate was let stand at room temperature for 10 min, and fluorescence signal values were read using a microplate reader. Data were analyzed using Prism 7.0 and graphs were generated. The values are shown as mean f SEM (N=2). […] The X-axis represents compound concentration (μM), and the Y-axis represents % inhibition.

vCap Cell = test: vCap cell growth inhibition, CellTiter-Glo, 72 h; format: cell-based; details: vCap cells, 72 h culture
Method: as §1

Row | Structure (SMILES) | IC50 (22Rv1 Cell; Homo sapiens, 22Rv1, 72 h) | IC50 (vCap Cell; Homo sapiens, VCaP, 72 h) | IC50 (22Rv1 Cell) | IC50 (vCap Cell)
1 | CC(=O)N1Cc2cc(C3COC(=O)N(C)C3)cc(N3CCCc4cc(-c5cnn(C)c5)c(C(F)F)cc43)c2C1 (stereo not drawn) [Compound M001238] | > 1000 nM | – | – | –
2 | CC(=O)N1CCC(c2cc3c(c(N4CCCc5cc(-c6cnn(C)c6)c(C(F)F)cc54)c2)CN(C(C)=O)C3)CC1 [Compound M001071] | > 1000 nM | > 1000 nM | – | –
3 | CNC(=O)N1Cc2cc(-c3cc[nH]c(=O)c3)cc(N3CCCc4cc(-c5cnn(C)c5)c(C(F)F)cc43)c2C1 [Compound M001155] | > 1000 nM | > 1000 nM | – | –
4 | CS[C@H]1CC[C@@H](c2cc3c(c(N4CCCc5cc(-c6cnn(C)c6)c(C(F)F)cc54)c2)CN(C(C)=O)C3)CC1 [Compound M001322] | > 1000 nM | > 1000 nM | – | –
5 | CNC(=O)N1Cc2cc(C3=CCN(C(=O)OCc4ccccc4)CC3)cc(N3CCCc4cc(-c5cnn(C)c5)c(C(F)F)cc43)c2C1 [Compound M001096] | > 1000 nM | > 1000 nM | – | –
6 | CNC(=O)N1CCc2cc(-c3ccn(C)c(=O)c3)cc(N3CCCc4cc(-c5cnn(C)c5)c(C(F)F)cc43)c2C1 [Compound M001125] | > 1000 nM | < 1000 nM | – | –
7 | CNC(=O)N1CCc2cc(Cl)cc(N3CCCc4cc(-c5cnn(C)c5)c(C(F)F)cc43)c2C1 [Compound M001209] | > 1000 nM | > 1000 nM | – | –
8 | CC(=O)N1Cc2cc(C3CCC([S@@](C)(=N)=O)CC3)cc(N3CCCc4cc(-c5cnn(C)c5)c(C(F)F)cc43)c2C1 (stereo partly drawn) [Compound M001329] | – | – | > 1000 nM | > 1000 nM
9 | CON1CCC(c2cc3c(c(N4CCCc5cc(-c6cnn(C)c6)c(C(F)F)cc54)c2)CN(C(C)=O)C3)CC1 [Compound M001269] | > 1000 nM | > 1000 nM | – | –
10 | CNC(=O)N1CCc2cc(C3CCNC3)cc(N3CCCc4cc(-c5cnn(C)c5)c(C(F)F)cc43)c2C1 (stereo not drawn) [Compound M001050] | > 1000 nM | > 1000 nM | – | –
11 | CN1CCC(c2cc3c(c(N4CCCc5cc(-c6cnn(C)c6)c(C(F)F)cc54)c2)CN(C(=O)C2CC2)C3)CC1=O (stereo not drawn) [Compound M001164] | > 1000 nM | > 1000 nM | – | –
12 | CNC(=O)N1Cc2cc(C3CCN(C)CC3)cc(N3CCCc4cc(-c5cnn(C)c5)c(C(F)F)cc43)c2C1 [Compound M001043] | > 1000 nM | > 1000 nM | – | –
13 | CCN1CCC(c2cc3c(c(N4CCCc5cc(-c6cnn(C)c6)c(C(F)F)cc54)c2)CN(C(C)=O)CCC3)CC1=O (stereo not drawn) [Compound M001264] | > 1000 nM | > 1000 nM | – | –
14 | CCN1CCN(c2cc3c(c(N4CCCc5cc(-c6cnn(C)c6)c(C(F)F)cc54)c2)CN(C(C)=O)C3)CC1=O [Compound M001262] | > 1000 nM | – | – | –
15 | CC(=O)N[C@H]1CC[C@@H](c2cc3c(c(N4CCCc5cc(-c6cnn(C)c6)c(C(F)F)cc54)c2)CN(C(C)=O)C3)CC1 [Compound M001308] | < 1000 nM | – | – | –
16 | COC(=O)N1CCc2cc(C3CCOCC3)cc(N3CCCc4cc(-c5cnn(C)c5)c(C(F)F)cc43)c2C1 [Compound M001270] | > 1000 nM | – | – | –
17 | CC(=O)N1Cc2cc(C3CCN(O)CC3)cc(N3CCCc4cc(-c5cnn(C)c5)c(C(F)F)cc43)c2C1 [Compound M001277] | > 1000 nM | – | – | –
18 | CNC(=O)N1CCc2cc([C@H]3CC[C@@H](N)CC3)cc(N3CCCc4cc(-c5cnn(C)c5)c(C(F)F)cc43)c2C1 [Compound M001318] | > 1000 nM | – | – | –
19 | CNC(=O)N1CCc2cc([C@H]3CC[C@H](N)CC3)cc(N3CCCc4cc(-c5cnn(C)c5)c(C(F)F)cc43)c2C1 [Compound M001319] | > 1000 nM | – | – | –
20 | CNC(=O)N1CCc2cc(C3CCC(NS(C)(=O)=O)CC3)cc(N3CCCc4cc(-c5cnn(C)c5)c(C(F)F)cc43)c2C1 (stereo not drawn) [Compound M001314] | > 1000 nM | – | – | –
21 | CC(=O)N1Cc2cc(C3CCN(CC(C)O)C(=O)C3)cc(Nc3cc(C(F)F)c(-c4cnn(C)c4)cc3F)c2C1 (stereo not drawn) [Compound M001241] | > 1000 nM | – | – | –
22 | CC(=O)N1Cc2cc(C3CCN(CC(F)F)C(=O)C3)cc(N3CCCc4cc(-c5cnn(C)c5)c(C(F)F)cc43)c2C1 (stereo not drawn) [Compound M001254] | < 1000 nM | – | – | –
23 | CNC(=O)N1CCc2cc(C3CCN(CC(F)F)C(=O)C3)cc(N3CCCc4cc(-c5cnn(C)c5)c(C(F)F)cc43)c2C1 (stereo not drawn) [Compound M001255] | < 1000 nM | – | – | –
24 | CNC(=O)N1CCc2cc(C3CCN(C4CCC(=O)NC4=O)C(=O)C3)cc(N3CCCc4cc(-c5cnn(C)c5)c(C(F)F)cc43)c2C1 (stereo not drawn) [Compound M001287] | > 1000 nM | – | – | –
